Article PMC8429728, “TNK1 is a ubiquitin-binding and 14-3-3-regulated kinase that can be targeted to block tumor growth” (Nature Communications, 2021)
Where two headings read alike, the source gives them in different places.

Assays:
Assay in all cases: biochemical
Set-up in all cases: Reaction Biology 371-kinase panel at Km ATP, per cent enzyme activity relative to DMSO, single dose in duplicate
MST2/STK3 = MST2/STK3 (Homo sapiens, UniProt Q13188); conditions: duplicate measurements, Km ATP
Summary of the method: (§1)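 First, kinases from a 371-member panel were exposed in vitro to 300 nM inhibitor. Next, % enzyme activity versus DMSO was computed. Finally, IC50s were derived by sigmoidal dose-response fitting with variable slope and a zero bottom constraint.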

AKT1 = AKT1 (Homo sapiens, UniProt P31749); conditions: duplicate measurements, Km ATP; read-out: % Enzyme Activity (relative to DMSO controls) / TP-0005801 (0.3µM) / Data 1
Summary of the method: as §1

MEKK2 = target: T1, MEKK2 (Homo sapiens, UniProt Q9Y2U5); conditions: duplicate measurements, Km ATP
T1 construct: gene MAP3K2
Summary of the method: as §1

IKKa/CHUK = IKKa/CHUK (Homo sapiens, UniProt O15111); conditions: duplicate measurements, Km ATP
Summary of the method: as §1

SIK3 = SIK3 (Homo sapiens, UniProt Q9Y2K2); conditions: duplicate measurements, Km ATP
Summary of the method: as §1

ULK2 = ULK2 (Homo sapiens, UniProt Q8IYT8); conditions: duplicate measurements, Km ATP
Summary of the method: as §1

MLK2/MAP3K10 = MLK2/MAP3K10 (Homo sapiens, UniProt Q02779); conditions: duplicate measurements, Km ATP
Summary of the method: as §1

CDK2/cyclin A = CDK2/cyclin A (Homo sapiens, UniProt P24941); conditions: duplicate measurements, Km ATP
Summary of the method: as §1

LOK/STK10 = LOK/STK10 (Homo sapiens, UniProt O94804); conditions: duplicate measurements, Km ATP
Summary of the method: as §1

CDK2/CYCLIN E = CDK2/CYCLIN E (Homo sapiens, UniProt P24941); conditions: duplicate measurements, Km ATP
Summary of the method: as §1

CDK8/cyclin C = CDK8/cyclin C (Homo sapiens, UniProt P49336); conditions: duplicate measurements, Km ATP
Summary of the method: as §1

ALK4/ACVR1B = ALK4/ACVR1B (Homo sapiens, UniProt P36896); conditions: duplicate measurements, Km ATP
Summary of the method: as §1

WNK2 = WNK2 (Homo sapiens, UniProt Q9Y3S1); conditions: duplicate measurements, Km ATP
Summary of the method: as §1

NIM1 = target: T2, NIM1 (Homo sapiens, UniProt Q8IY84); conditions: duplicate measurements, Km ATP
T2 construct: gene NIM1K
Summary of the method: as §1

FGFR2 = FGFR2 (Homo sapiens, UniProt P21802); conditions: duplicate measurements, Km ATP
Summary of the method: as §1

CDK3/cyclin E2 = CDK3/cyclin E2 (Homo sapiens, UniProt Q00526); conditions: duplicate measurements, Km ATP
Summary of the method: as §1

[1] = read-out: % Enzyme Activity (relative to DMSO controls) / TP-0005801 (0.3µM) / Data 1
[2] = read-out: % Enzyme Activity (relative to DMSO controls) / TP-0005801 (0.3µM) / Data 2

Chain of MST2/STK3 (Q13188 whole entry): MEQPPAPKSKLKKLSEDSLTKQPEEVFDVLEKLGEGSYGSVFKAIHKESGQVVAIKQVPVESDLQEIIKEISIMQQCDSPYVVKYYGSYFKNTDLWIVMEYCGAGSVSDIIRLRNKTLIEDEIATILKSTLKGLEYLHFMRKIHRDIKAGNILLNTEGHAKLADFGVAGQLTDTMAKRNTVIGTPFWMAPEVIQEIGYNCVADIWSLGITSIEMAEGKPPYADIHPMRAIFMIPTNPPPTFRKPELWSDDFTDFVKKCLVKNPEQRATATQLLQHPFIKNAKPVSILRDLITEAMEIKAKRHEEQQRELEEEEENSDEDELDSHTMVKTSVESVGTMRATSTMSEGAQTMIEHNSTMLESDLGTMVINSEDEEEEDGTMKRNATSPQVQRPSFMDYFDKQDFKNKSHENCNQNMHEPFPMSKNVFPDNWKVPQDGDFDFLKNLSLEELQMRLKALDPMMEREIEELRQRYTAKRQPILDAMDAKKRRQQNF
T2 sequence (Q8IY84 whole entry): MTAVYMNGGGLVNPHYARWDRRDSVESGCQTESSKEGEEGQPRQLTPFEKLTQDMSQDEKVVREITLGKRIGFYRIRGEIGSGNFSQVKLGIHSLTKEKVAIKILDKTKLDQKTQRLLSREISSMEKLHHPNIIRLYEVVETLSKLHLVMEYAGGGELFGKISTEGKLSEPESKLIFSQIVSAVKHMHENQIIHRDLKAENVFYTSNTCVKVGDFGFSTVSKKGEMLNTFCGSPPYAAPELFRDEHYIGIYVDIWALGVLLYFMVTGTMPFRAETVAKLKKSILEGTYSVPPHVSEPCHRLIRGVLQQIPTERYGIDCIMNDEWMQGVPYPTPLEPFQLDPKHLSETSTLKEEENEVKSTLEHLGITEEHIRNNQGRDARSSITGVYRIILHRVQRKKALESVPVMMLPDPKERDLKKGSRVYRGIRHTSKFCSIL
Chain of LOK/STK10 (O94804 whole entry): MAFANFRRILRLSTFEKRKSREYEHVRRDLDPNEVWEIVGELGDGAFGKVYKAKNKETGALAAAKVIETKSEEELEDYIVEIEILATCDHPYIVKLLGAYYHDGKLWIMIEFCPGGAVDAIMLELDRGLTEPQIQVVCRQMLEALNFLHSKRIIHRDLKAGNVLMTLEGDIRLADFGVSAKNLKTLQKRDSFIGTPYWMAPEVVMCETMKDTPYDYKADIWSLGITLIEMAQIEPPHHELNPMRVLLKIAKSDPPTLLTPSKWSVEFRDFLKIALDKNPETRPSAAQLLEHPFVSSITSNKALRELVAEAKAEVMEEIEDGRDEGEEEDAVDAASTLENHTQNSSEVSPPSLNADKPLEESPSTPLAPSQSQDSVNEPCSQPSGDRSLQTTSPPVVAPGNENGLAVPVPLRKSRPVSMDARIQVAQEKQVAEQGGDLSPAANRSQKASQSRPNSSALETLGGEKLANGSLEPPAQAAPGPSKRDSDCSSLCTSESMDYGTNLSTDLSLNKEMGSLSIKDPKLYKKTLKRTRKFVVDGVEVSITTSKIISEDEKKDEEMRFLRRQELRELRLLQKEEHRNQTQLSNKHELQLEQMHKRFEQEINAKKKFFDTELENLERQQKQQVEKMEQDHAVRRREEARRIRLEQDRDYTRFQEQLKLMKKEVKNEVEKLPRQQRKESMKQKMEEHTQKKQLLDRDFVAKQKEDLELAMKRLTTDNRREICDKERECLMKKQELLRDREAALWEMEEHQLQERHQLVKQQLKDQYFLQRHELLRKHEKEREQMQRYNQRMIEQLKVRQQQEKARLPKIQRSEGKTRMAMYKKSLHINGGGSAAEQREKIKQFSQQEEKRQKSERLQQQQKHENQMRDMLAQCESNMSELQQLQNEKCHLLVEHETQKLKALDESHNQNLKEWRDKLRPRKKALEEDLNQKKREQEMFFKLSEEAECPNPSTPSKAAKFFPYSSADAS
Chain of CDK8/cyclin C (P49336 whole entry): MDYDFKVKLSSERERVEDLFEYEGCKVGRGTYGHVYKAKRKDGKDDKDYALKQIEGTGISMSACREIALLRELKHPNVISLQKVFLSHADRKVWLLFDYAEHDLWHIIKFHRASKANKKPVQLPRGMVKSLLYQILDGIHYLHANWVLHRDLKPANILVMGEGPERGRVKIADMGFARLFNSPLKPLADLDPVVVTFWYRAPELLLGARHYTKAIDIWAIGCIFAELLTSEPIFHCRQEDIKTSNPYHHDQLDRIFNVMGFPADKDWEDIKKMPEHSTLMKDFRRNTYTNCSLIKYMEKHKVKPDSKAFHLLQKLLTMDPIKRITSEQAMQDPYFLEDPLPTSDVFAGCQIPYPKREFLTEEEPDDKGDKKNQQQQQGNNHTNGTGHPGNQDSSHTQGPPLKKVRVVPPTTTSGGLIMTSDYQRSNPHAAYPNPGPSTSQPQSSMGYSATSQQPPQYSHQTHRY
Chain of CDK8/cyclin C (P24863 whole entry partner): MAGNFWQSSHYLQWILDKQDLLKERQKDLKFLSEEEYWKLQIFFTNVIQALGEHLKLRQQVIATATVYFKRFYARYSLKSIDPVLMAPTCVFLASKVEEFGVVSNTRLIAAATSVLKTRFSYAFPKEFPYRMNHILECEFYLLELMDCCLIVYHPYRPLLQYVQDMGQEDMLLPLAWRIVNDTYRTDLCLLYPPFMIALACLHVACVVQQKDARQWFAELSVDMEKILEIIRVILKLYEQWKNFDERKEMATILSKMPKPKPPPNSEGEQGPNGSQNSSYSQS
T1 sequence (Q9Y2U5 whole entry): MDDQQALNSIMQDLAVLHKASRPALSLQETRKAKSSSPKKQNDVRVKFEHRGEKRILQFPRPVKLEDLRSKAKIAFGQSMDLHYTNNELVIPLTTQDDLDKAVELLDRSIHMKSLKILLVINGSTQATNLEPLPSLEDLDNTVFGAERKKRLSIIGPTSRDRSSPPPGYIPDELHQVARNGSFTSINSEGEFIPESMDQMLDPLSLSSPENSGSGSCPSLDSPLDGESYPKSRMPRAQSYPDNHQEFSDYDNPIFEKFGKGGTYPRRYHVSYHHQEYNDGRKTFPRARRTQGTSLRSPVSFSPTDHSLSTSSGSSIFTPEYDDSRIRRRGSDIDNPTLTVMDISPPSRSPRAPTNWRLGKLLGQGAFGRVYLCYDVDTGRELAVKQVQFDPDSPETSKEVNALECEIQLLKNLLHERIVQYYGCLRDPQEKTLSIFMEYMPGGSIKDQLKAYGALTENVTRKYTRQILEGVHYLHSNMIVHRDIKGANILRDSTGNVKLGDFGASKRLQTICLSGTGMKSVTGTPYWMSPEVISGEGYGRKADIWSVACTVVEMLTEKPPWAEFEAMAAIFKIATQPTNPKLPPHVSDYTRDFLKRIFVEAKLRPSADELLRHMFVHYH
Chain of ULK2 (Q8IYT8 whole entry): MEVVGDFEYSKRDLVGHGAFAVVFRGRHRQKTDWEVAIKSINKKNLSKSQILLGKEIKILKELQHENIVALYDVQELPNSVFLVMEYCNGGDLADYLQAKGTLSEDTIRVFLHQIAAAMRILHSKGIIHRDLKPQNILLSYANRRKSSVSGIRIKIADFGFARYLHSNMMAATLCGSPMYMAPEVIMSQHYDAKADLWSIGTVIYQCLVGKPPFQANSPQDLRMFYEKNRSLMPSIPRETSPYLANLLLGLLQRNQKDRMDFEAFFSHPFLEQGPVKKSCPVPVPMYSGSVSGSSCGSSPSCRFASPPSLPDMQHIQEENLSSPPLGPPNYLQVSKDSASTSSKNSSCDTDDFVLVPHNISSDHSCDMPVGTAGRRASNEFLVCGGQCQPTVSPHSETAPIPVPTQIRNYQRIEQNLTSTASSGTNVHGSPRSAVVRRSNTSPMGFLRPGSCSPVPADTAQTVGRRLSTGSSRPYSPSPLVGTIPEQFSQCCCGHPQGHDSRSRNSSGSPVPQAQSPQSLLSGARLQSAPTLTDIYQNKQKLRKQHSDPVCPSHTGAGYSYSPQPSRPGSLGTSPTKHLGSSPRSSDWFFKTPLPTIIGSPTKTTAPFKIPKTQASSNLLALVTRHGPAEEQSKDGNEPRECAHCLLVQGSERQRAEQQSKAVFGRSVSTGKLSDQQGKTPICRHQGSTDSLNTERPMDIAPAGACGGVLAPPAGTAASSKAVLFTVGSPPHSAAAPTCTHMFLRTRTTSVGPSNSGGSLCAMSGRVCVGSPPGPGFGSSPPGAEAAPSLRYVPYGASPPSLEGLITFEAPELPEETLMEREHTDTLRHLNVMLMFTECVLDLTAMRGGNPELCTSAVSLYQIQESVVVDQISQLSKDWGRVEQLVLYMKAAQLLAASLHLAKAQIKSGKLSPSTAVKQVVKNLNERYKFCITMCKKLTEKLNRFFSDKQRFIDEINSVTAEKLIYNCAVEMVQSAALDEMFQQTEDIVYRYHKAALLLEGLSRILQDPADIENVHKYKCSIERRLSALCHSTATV
Chain of CDK3/cyclin E2 (Q00526 whole entry): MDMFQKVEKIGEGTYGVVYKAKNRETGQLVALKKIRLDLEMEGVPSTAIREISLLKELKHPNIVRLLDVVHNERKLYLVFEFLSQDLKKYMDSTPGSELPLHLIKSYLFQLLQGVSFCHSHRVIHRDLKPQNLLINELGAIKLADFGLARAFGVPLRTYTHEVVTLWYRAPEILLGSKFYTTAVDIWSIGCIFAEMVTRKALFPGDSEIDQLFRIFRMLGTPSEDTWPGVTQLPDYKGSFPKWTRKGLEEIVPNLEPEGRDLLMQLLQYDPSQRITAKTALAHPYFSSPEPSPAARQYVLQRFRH
Chain of CDK3/cyclin E2 (O96020 whole entry partner): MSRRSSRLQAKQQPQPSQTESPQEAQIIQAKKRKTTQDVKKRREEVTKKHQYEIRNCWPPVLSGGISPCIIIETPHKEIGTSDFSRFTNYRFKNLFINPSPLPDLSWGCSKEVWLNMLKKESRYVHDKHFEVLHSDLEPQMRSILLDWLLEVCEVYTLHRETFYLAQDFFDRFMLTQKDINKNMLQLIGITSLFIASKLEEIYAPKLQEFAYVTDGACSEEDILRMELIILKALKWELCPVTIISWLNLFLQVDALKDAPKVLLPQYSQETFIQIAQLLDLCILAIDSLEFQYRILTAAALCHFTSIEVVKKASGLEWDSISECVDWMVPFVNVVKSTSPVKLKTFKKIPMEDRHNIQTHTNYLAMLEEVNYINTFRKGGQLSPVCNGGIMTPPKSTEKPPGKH

COc1cc(N2CCN(C)CC2)c(C)cc1Nc1ncc(Br)c(Nc2cccnc2N(C)C)n1 [TP-5801]
remaining activity at 0.3 µM (MST2/STK3; [1]): 97.7%
remaining activity at 0.3 µM (MST2/STK3; [2]): 97.5%
remaining activity at 0.3 µM (AKT1): 105%
remaining activity at 0.3 µM (MEKK2; [1]): 86.8%
remaining activity at 0.3 µM (MEKK2; [2]): 81%
remaining activity at 0.3 µM (IKKa/CHUK; [1]): 99.5%
remaining activity at 0.3 µM (IKKa/CHUK; [2]): 94.3%
remaining activity at 0.3 µM (SIK3; [1]): 96.1%
remaining activity at 0.3 µM (SIK3; [2]): 93.9%
remaining activity at 0.3 µM (ULK2; [1]): 86.5%
remaining activity at 0.3 µM (ULK2; [2]): 82.4%
remaining activity at 0.3 µM (MLK2/MAP3K10; [1]): 87%
remaining activity at 0.3 µM (MLK2/MAP3K10; [2]): 85.9%
remaining activity at 0.3 µM (CDK2/cyclin A; [1]): 90.8%
remaining activity at 0.3 µM (CDK2/cyclin A; [2]): 87.6%
remaining activity at 0.3 µM (LOK/STK10; [1]): 74.7%
remaining activity at 0.3 µM (LOK/STK10; [2]): 73.7%
remaining activity at 0.3 µM (CDK2/CYCLIN E; [1]): 91.7%
remaining activity at 0.3 µM (CDK2/CYCLIN E; [2]): 91.2%
remaining activity at 0.3 µM (CDK8/cyclin C; [1]): 31.9%
remaining activity at 0.3 µM (CDK8/cyclin C; [2]): 31.6%
remaining activity at 0.3 µM (ALK4/ACVR1B; [1]): 86.9%
remaining activity at 0.3 µM (ALK4/ACVR1B; [2]): 85%
remaining activity at 0.3 µM (WNK2; [1]): 96.6%
remaining activity at 0.3 µM (WNK2; [2]): 93.9%
remaining activity at 0.3 µM (NIM1; [1]): 102%
remaining activity at 0.3 µM (NIM1; [2]): 95.6%
remaining activity at 0.3 µM (FGFR2; [1]): 89.2%
remaining activity at 0.3 µM (FGFR2; [2]): 87.3%
remaining activity at 0.3 µM (CDK3/cyclin E2; [1]): 95.5%
remaining activity at 0.3 µM (CDK3/cyclin E2; [2]): 95.1%
